Reference: PubChem BioAssay (NCI)
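Dose response: 5 concentrations. Exposure: 48 h. Format: 96-well plates. Endpoint: linear interpolation; highest concentration if not reached. Here, GI50 denotes the concentration required for 50% inhibition of growth. TGI marks complete inhibition of growth.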

Columns and labels:
Assay in all cases: growth of human tumour cells (NCI), 48 h
[1] = test system: HT29 colon
[2] = test system: HCT-116 colon
[3] = test system: HOP-62 NSCLC
[4] = test system: DU-145 prostate
[5] = test system: A498 renal
[6] = test system: HOP-92 NSCLC
[7] = test system: IGROV1 ovarian
[8] = test system: SW-620 colon
[9] = test system: COLO 205 colon
[10] = test system: UACC-257 melanoma

Structure (SMILES)	GI50 [1] [µM]	TGI [1] [µM]	GI50 [2] [µM]	TGI [2] [µM]	GI50 [3] [µM]	TGI [3] [µM]	GI50 [4] [µM]	GI50 [5] [µM]	TGI [5] [µM]	GI50 [6] [µM]	TGI [6] [µM]	GI50 [7] [µM]	TGI [7] [µM]	GI50 [8] [µM]	TGI [8] [µM]	GI50 [9] [µM]	TGI [9] [µM]	GI50 [10] [µM]	TGI [10] [µM]	TGI [4] [µM]
O=C(Nc1cccc(-n2ccc3c(NC(=O)c4ccccc4)nccc32)c1)c1cc(N2CCOCC2)cc(C(F)(F)F)c1	0.0312	0.446	0.0347	> 29.8	0.168	> 100	0.164	0.0315	0.729	0.3	> 26.2	0.235	> 100	0.0484	> 100	0.157	0.472	0.109	> 100	
CCOC(=O)C(C)c1nc2cc(N3CCN(C)CC3)c(F)cc2[nH]c1=O (centres undefined)		> 100		> 100		> 100			> 100		> 100		> 100		> 100		> 100		> 100	> 100
CC[C@@H]1CC[C@@H]2[C@H](CC[C@]3(C)[C@@H](OS(=O)(=O)c4ccc(C)cc4)CC[C@@H]23)[C@H]1CO		> 100		> 100		> 100			> 100		> 100		> 100		> 100		> 100		> 100	> 100
O=C1/C(=C/c2ccco2)NC(=S)N1CN1CCOCC1		> 100		> 100		> 100			> 100		> 100		> 100		> 100		> 100		> 100	> 100
